Source: US20060014712A1, “Controlled delivery of therapeutic compounds” (CeMines, Inc., priority 2004, published 2006)

Assays:
Dct/Trp2 promoter [1] = test: Transient CAT assay, Dct/Trp2 proximal promoter-CAT construct in SK-MEL-28; assay type: cell-based, human; settings: CPP concentration 10 μM
Procedure: (§1) SOX10 and MITF interact with the proximal promoter of Dct/Trp2 gene and induces its activity (Ludwig A. et al., FEBS Lett. 556 (1-3):236-244 (2004)). Thus, a Dct/Trp2 proximal promoter reporter construct was used to analyze effect of mimicking peptides on promoter activity using transient CAT assay.
(§2) Methods. Human melanoma cell lines SK-MEL-28 and WM 266-4 were obtained from the American Tissue Culture Collection (ATCC) and were cultured according to recommendations of ATCC (DMEM, 10% FCS, penicillin+streptomycin). Dct/Trp2 proximal promoter-CAT construct (Ludwig et al., supra) was used in all experiments.
(§3) Cells were transfected by using FuGene reagent (Roche Molecular Biochemicals) according to manufacturer's instructions. Freeze-thaw lysates of cells collected 48 h after the transfection were assayed for CAT activity as described (Pothier, F. et al., DNA Cell Biol. 11(1):83-90 (1992)). At least two different DNA preparations were tested for each plasmid. To normalize the transfection efficiencies, cells were cotransfected with pON260 expressing β-galactosidase (Spaete, R. R. and Mocarski, E. S., J. Virol. 54(3):817-24 (1985); Spaete, R. R. and Mocarski, E. S., J. Virol. 56(1):13543 (1985)). All the CAT activities were normalized to total protein and β-galatosidase activity.
(§4) Following transfection, cells were grown in 6 well plates, each treatment in triplicates. Peptides were added to the media and media was changed every day during the 7 day experiment. CPP concentration was 10 μM.

Dct/Trp2 promoter [2] = test: Transient CAT assay, Dct/Trp2 proximal promoter-CAT construct in WM 266-4; assay type: cell-based, human; settings: CPP concentration 10 μM
Procedure: as §1, §2, §3, §4

WM 266-4 [3] = test: Cell counting after 7 day peptide treatment; assay type: cell-based, human; settings: conc 10 µM, start count 10
Procedure: The ability to block interaction of MITF, SOX10 and STAT3 with active transcriptional complex and inhibit proliferation and stimulate apoptosis of melanoma cells were tested on human melanoma cell lines SK-MEL-28 and WM 266-4, and mouse melanoma cell line B16. Methods. Human melanoma cell lines SK-MEL-28 and WM 2664 and mouse melanoma cell line B16 were obtained from the American Tissue Culture Collection (ATCC). Cells were cultured according to recommendations of ATCC (DMEM, 10% FCS, penicillin+streptomycin) and used in experiments after two passages in the laboratory. Cells were grown in 24 well plates, each treatment in triplicates. Cells were plated 16 hours prior treatments started. Peptides were added to the media, and media was changed every day during 7 day experiment. […] Cells were precipitated and resuspended in 100 μl of PBS, and 5 μl were removed for counting Methods. Human melanoma cell lines SK-MEL-28 and WM 266-4 were obtained from the American Tissue Culture Collection (ATCC) and were cultured according to recommendations of ATCC (DMEM, 10% FCS, penicillin+streptomycin). Human keratinocytes were obtained from Clonetics and cultured according to manufacturers protocol. Cells were used in experiments after two passages in the laboratory. Cells were grown in 24 well plates, each treatment in triplicates. Cells were plated 16 hours prior treatments started. Peptides were added to the media, and media was changed every day during 7 day experiment. […] For cell counting, cells were trypsinized (0.25% Trypsin, 2 mM EDTA) in Ca, Mg free PBS. Cells were precipitated and resuspended in 100 μl of PBS, and 5 μl were removed for counting.

SK-MEL-28 [4] = test: Cell counting after 7 day peptide treatment; assay type: cell-based, human; settings: conc 10 µM, start count 10
Procedure: The ability to block interaction of MITF, SOX10 and STAT3 with active transcriptional complex and inhibit proliferation and stimulate apoptosis of melanoma cells were tested on human melanoma cell lines SK-MEL-28 and WM 266-4, and mouse melanoma cell line B16. Methods. Human melanoma cell lines SK-MEL-28 and WM 2664 and mouse melanoma cell line B16 were obtained from the American Tissue Culture Collection (ATCC). Cells were cultured according to recommendations of ATCC (DMEM, 10% FCS, penicillin+streptomycin) and used in experiments after two passages in the laboratory. Cells were grown in 24 well plates, each treatment in triplicates. Cells were plated 16 hours prior treatments started. Peptides were added to the media, and media was changed every day during 7 day experiment. CPP concentration was 10 μM For cell counting, cells were trypsinized (0.25% Trypsin, 2 mM EDTA) in Ca^+2, Mg^+2 free PBS. Cells were precipitated and resuspended in 100 μl of PBS, and 5 μl were removed for counting Methods. Human melanoma cell lines SK-MEL-28 and WM 266-4 were obtained from the American Tissue Culture Collection (ATCC) and were cultured according to recommendations of ATCC (DMEM, 10% FCS, penicillin+streptomycin). Human keratinocytes were obtained from Clonetics and cultured according to manufacturers protocol. Cells were used in experiments after two passages in the laboratory. Cells were grown in 24 well plates, each treatment in triplicates. Cells were plated 16 hours prior treatments started. Peptides were added to the media, and media was changed every day during 7 day experiment. CPP concentration was 10 μM. For cell counting, cells were trypsinized (0.25% Trypsin, 2 mM EDTA) in Ca, Mg free PBS. Cells were precipitated and resuspended in 100 μl of PBS, and 5 μl were removed for counting.

B16 [5] = test: Apoptosis, Annexin V-Cy3 Apoptosis Kit; assay type: cell-based, mouse; settings: CPP mimicking peptides, conc 10 µM
Procedure: (§5) Methods. Human melanoma cell lines SK-MEL-28 and WM 2664 and mouse melanoma cell line B16 were obtained from the American Tissue Culture Collection (ATCC). Cells were cultured according to recommendations of ATCC (DMEM, 10% FCS, penicillin+streptomycin) and used in experiments after two passages in the laboratory. Cells were grown in 24 well plates, each treatment in triplicates. Cells were plated 16 hours prior treatments started. Peptides were added to the media, and media was changed every day during 7 day experiment. CPP concentration was 10 μM Apoptosis was analyzed using Biovision Annexin V-Cy3 Apoptosis Kit according to manufacturers protocols.

WM 266-4 [6] = test: Apoptosis, Annexin V-Cy3 Apoptosis Kit; assay type: cell-based, human; settings: conc 10 µM
Procedure: as §5, with “[…] Methods. Human melanoma cell lines SK-MEL-28 and WM 266-4 were obtained from the American Tissue Culture Collection (ATCC) and were cultured according to recommendations of ATCC (DMEM, 10% FCS, penicillin+streptomycin). Human keratinocytes were obtained from Clonetics and cultured according to manufacturers protocol. Cells were used in experiments after two passages in the laboratory. Cells were grown in 24 well plates, each treatment in triplicates. Cells were plated 16 hours prior treatments started. Peptides were added to the media, and media” for “CPP concentration”, “changed every day during 7 day experiment. […]” for “10 μM”

SK-MEL-28 [7] = test: WST-1 test (mitochondrial activity); assay type: cell-based, human; settings: conc 10 µM, untreated = 1
B16 [8] = test: Cell counting after 7 day peptide treatment; assay type: cell-based, mouse; settings: CPP mimicking peptides, conc 10 µM, start count 10
Procedure: The ability to block interaction of MITF, SOX10 and STAT3 with active transcriptional complex and inhibit proliferation and stimulate apoptosis of melanoma cells were tested on human melanoma cell lines SK-MEL-28 and WM 266-4, and mouse melanoma cell line B16. Methods. Human melanoma cell lines SK-MEL-28 and WM 2664 and mouse melanoma cell line B16 were obtained from the American Tissue Culture Collection (ATCC). Cells were cultured according to recommendations of ATCC (DMEM, 10% FCS, penicillin+streptomycin) and used in experiments after two passages in the laboratory. Cells were grown in 24 well plates, each treatment in triplicates. Cells were plated 16 hours prior treatments started. Peptides were added to the media, and media was changed every day during 7 day experiment. […] Cells were precipitated and resuspended in 100 μl of PBS, and 5 μl were removed for counting

B16 melanoma = test: Mouse tumor xenograft model, peptide membrane patch on skin melanoma; assay type: in vivo; settings: patch immersed in 100 μM peptide solution, start = 100; for tumor size change (%) 1 d: B16 s.c. in C57BL/6 mice
Procedure: The effect of modified mimicking peptides was analyzed by inducing melanomas in mouse skin by grafting suspension of melanoma cells. […] Tumor diameter was measured 1, 2, 3, 5, 7 days after treatmet started.
Methods. Mouse melanoma cell line B16 was cultured as described above, and approximately 5×10^6 cells were injected subcutaneously into the left and right limbs of three C57BL/6JOIaHsd mice.
Administration. Cellulose membrane was immersed in a solution of peptides (100 μM). Size of tumor was measured 1, 2, 3, 5 and 7 days following patch treatment. At the same time new patch was applied. All experiments were done in triplicates (3 animals per group).

WM 266-4 [9] = test: WST-1 test (mitochondrial activity); assay type: cell-based, human; settings: modified peptides, conc 10 µM, untreated = 1
Procedure: Methods. Human melanoma cell lines SK-MEL-28 and WM 2664 and mouse melanoma cell line B16 were obtained from the American Tissue Culture Collection (ATCC). Cells were cultured according to recommendations of ATCC (DMEM, 10% FCS, penicillin+streptomycin) and used in experiments after two passages in the laboratory. Cells were grown in 24 well plates, each treatment in triplicates. Cells were plated 16 hours prior treatments started. Peptides were added to the media, and media was changed every day during 7 day experiment. […] Methods. Human melanoma cell lines SK-MEL-28 and WM 266-4 were obtained from the American Tissue Culture Collection (ATCC) and were cultured according to recommendations of ATCC (DMEM, 10% FCS, penicillin+streptomycin). Human keratinocytes were obtained from Clonetics and cultured according to manufacturers protocol. Cells were used in experiments after two passages in the laboratory. Cells were grown in 24 well plates, each treatment in triplicates. Cells were plated 16 hours prior treatments started. Peptides were added to the media, and media was changed every day during 7 day experiment. […] WST-1 test was performed to measure mitochondrial activity, which can also be used as a measure of cell number.

Human keratinocytes [10] = test: Cell counting after 7 day peptide treatment; assay type: cell-based; settings: keratinocyte, modified peptides, conc 10 µM, start count 10
Procedure: Methods. Human melanoma cell lines SK-MEL-28 and WM 266-4 were obtained from the American Tissue Culture Collection (ATCC) and were cultured according to recommendations of ATCC (DMEM, 10% FCS, penicillin+streptomycin). Human keratinocytes were obtained from Clonetics and cultured according to manufacturers protocol. Cells were used in experiments after two passages in the laboratory. Cells were grown in 24 well plates, each treatment in triplicates. Cells were plated 16 hours prior treatments started. Peptides were added to the media, and media was changed every day during 7 day experiment. CPP concentration was 10 μM. For cell counting, cells were trypsinized (0.25% Trypsin, 2 mM EDTA) in Ca, Mg free PBS. Cells were precipitated and resuspended in 100 μl of PBS, and 5 μl were removed for counting.

Human keratinocytes [11] = test: WST-1 test (mitochondrial activity); assay type: cell-based; settings: keratinocyte; modified peptides; conc 10 µM; untreated = 1
Procedure: Methods. Human melanoma cell lines SK-MEL-28 and WM 266-4 were obtained from the American Tissue Culture Collection (ATCC) and were cultured according to recommendations of ATCC (DMEM, 10% FCS, penicillin+streptomycin). Human keratinocytes were obtained from Clonetics and cultured according to manufacturers protocol. Cells were used in experiments after two passages in the laboratory. Cells were grown in 24 well plates, each treatment in triplicates. Cells were plated 16 hours prior treatments started. Peptides were added to the media, and media was changed every day during 7 day experiment. […] WST-1 test was performed to measure mitochondrial activity, which can also be used as a measure of cell number.

Human keratinocytes [12] = test: Apoptosis, Annexin V-Cy3 Apoptosis Kit; assay type: cell-based; settings: keratinocyte, modified peptides, conc 10 µM
[13] = modified (inhibitor/MMP2, MMP9 site) peptides

Sequence | tumor size change (%) 1 d (B16 melanoma) | tumor size change (%) 2 d (B16 melanoma) | tumor size change (%) 3 d (B16 melanoma) | tumor size change (%) 5 d (B16 melanoma) | tumor size change (%) 7 d (B16 melanoma) | Cell Count 7 d (SK-MEL-28 [4]; [13]) | WST-1 7 d (WM 266-4 [9]) | Cell Count 7 d (Human keratinocytes [10]) | WST-1 7 d (Human keratinocytes [11]) | WST-1 7 d (SK-MEL-28 [7]; modified peptides) | Apoptosis 7 d/% (Human keratinocytes [12]) | Cell Count 7 d (WM 266-4 [3]; modified peptides) | other results
RPKKRKVRRRKMQQLEQMLTALDQMRRSIVSELAGLLS [STAT3-int1] |  |  |  |  |  |  |  |  |  |  |  |  | Dct/Trp2 promoter activity (CAT assay) (Dct/Trp2 promoter [1]): do not have significant effect; Dct/Trp2 promoter activity (CAT assay) (Dct/Trp2 promoter [2]): do not have significant effect; Cell Count 7 d (WM 266-4 [3]; CPP mimicking peptides): 34; Cell Count 7 d (SK-MEL-28 [4]; CPP mimicking peptides): 40; Apoptosis 7 d/% (B16 [5]): 28%; Apoptosis 7 d/% (WM 266-4 [6]; CPP mimicking peptides): 10%; WST-1 7 d (SK-MEL-28 [7]; CPP mimicking peptides): 0.79; Cell Count 7 d (B16 [8]): 59
TTGGSSPQGLEAKRPKKRKVRRRKMQQLEQMLTALDQMRRSIVSELAGLLS [STAT3-int1M] | 109% | 124% | 154% | 181% | 217% | 42 | 0.91 | 41 | 1 | 0.84 | 2% |  | Apoptosis 7 d/% (WM 266-4 [6]; modified peptides): 13%
TTGGSSPQGLEAKRPKKRKVRRRQLMLEPYALDMSRIRVLSESLGLATQSG [Scr-int1M, reference compound] | 109% | 147% | 175% | 211% | 272% | 48 | 1 | 40 | 1 | 1 |  | 30 | 
TTGGSSPQGLEAKRPKKRKVRRRVKRPMNAFMVWAQAARRKLADQY [SOX10-int1M] | 111% | 127% | 146% | 171% | 224% | 35 | 0.7 | 37 | 0.93 | 0.72 | 6% | 22 | 
